ChEMBL document CHEMBL3352756, “Synthesis and evaluation of pyrazolines bearing benzothiazole as anti-inflammatory agents” (Bioorg Med Chem, 2014)

Key:
RAW264.7 [1] = test: Antiinflammatory activity in mouse RAW264.7 cells assessed as inhibition of LPS-induced TNF-alpha release at 20 uM after 24 hrs by ELISA; format: functional; details: RAW264.7, 24 h
Rattus norvegicus [2] = test: Toxicity in rat assessed as damage to epithelial layer of stomach at 60 mg/kg, po after 5 hrs; format: organism-based; design: dose 60 mg/kg, route oral; details: in vivo
[3] = (§1) Cytotoxicity against mouse RAW264.7 cells assessed as cell viability at 20 uM after 24 hrs by MTT assay in presence of LPS; format: cell-based; details: RAW264.7 cells, read-out: Activity
Rattus norvegicus [4] = test: Toxicity in rat assessed as ulceration at 60 mg/kg, po after 5 hrs; format: organism-based; design: dose 60 mg/kg, route oral; details: in vivo
Rattus norvegicus [5] = test: Antiinflammatory activity in albino Wistar rat paw edema model assessed as inhibition of carrageenan-induced paw edema at 20 mg/kg, po administered 1 hr prior to carrageenan challenge measured after 3 to 5 hrs by plethysmometry relative to vehicle-treated control; format: functional
RAW264.7 [6] = test: as §1; format: cell-based; details: raw264.7, 24 h, 20 µM

| SMILES | inhibition at 20 µM (RAW264.7 [1]) [%] | Activity (Rattus norvegicus [2]) | viability at 24 h, 20 µM [3] [%] | Activity (Rattus norvegicus [4]) | inhibition in vivo at 20 mg/kg (Rattus norvegicus [5]) [%] | Activity (RAW264.7 [6]) |
| --- | --- | --- | --- | --- | --- | --- |
| NS(=O)(=O)c1ccc2nc(N3N=C(c4ccc(Cl)cc4)CC3c3ccccc3Cl)sc2c1 (stereo unspecified) | 38 | Non-toxic | > 90 | Non-toxic |  |  |
| NS(=O)(=O)c1ccc2nc(N3N=C(c4ccc(Cl)cc4)CC3c3ccc(F)cc3)sc2c1 (stereo unspecified) | 38 |  | 86 |  |  |  |
| COc1ccc(C2CC(c3ccc(Br)cc3)=NN2c2nc3ccc(S(N)(=O)=O)cc3s2)cc1 (stereo unspecified) | 38 |  | 86 |  |  |  |
| Cc1ccc(C2CC(c3ccc(Cl)cc3)=NN2c2nc3ccc(S(N)(=O)=O)cc3s2)cc1 (stereo unspecified) | 38 |  |  |  |  |  |
| COc1ccc(C2CC(c3ccc(Cl)cc3)=NN2c2nc3ccc(S(N)(=O)=O)cc3s2)cc1 (stereo unspecified) | 38 |  |  |  | 67.7 | Toxic |
| NS(=O)(=O)c1ccc2nc(N3N=C(c4ccc(Cl)cc4)CC3c3ccccc3)sc2c1 (stereo unspecified) | 72.2 | Non-toxic | > 90 | Non-toxic | 68.3 |  |
| NS(=O)(=O)c1ccc2nc(N3N=C(c4ccc(Br)cc4)CC3c3ccc(Cl)cc3)sc2c1 (stereo unspecified) | 71.7 | Non-toxic | 90 | Non-toxic |  |  |
| NS(=O)(=O)c1ccc2nc(N3N=C(c4ccc(Cl)cc4)CC3c3ccc(Cl)cc3)sc2c1 (stereo unspecified) | 38 | Non-toxic | > 90 | Non-toxic |  |  |
| NS(=O)(=O)c1ccc2nc(N3N=C(c4ccc(Br)cc4)CC3c3ccc(F)cc3)sc2c1 (stereo unspecified) | 38 |  | 86 |  |  |  |
| Cc1ccc(-c2cc(C(F)(F)F)nn2-c2ccc(S(N)(=O)=O)cc2)cc1 [CELECOXIB] | 53.4 | Non-toxic |  | Non-toxic | 67 |  |
